Data from ChEMBL document CHEMBL1201862, “PubChem BioAssay data set” (2004).
The source made the active and inactive calls.

Assays:
HEK293 [1] = assay: membrane integrity loss in HEK cells – cell-based, fluorescence, cytotoxicity control for IDE activator project, dose response (AID 588440); assay type: functional; conditions: Homo sapiens;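 note: cytotoxicity by LDH release measuring loss of membrane integrity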
Insulin-degrading enzyme [2] = target: T1, Insulin-degrading enzyme (Homo sapiens, UniProt P14735); assay: cellular IDE activation of Abeta substrate cleavage – fluorescence polarization, HEK cells, dose response (AID 588439); assay type: functional, cell-based
T1 sequence (P14735 whole entry): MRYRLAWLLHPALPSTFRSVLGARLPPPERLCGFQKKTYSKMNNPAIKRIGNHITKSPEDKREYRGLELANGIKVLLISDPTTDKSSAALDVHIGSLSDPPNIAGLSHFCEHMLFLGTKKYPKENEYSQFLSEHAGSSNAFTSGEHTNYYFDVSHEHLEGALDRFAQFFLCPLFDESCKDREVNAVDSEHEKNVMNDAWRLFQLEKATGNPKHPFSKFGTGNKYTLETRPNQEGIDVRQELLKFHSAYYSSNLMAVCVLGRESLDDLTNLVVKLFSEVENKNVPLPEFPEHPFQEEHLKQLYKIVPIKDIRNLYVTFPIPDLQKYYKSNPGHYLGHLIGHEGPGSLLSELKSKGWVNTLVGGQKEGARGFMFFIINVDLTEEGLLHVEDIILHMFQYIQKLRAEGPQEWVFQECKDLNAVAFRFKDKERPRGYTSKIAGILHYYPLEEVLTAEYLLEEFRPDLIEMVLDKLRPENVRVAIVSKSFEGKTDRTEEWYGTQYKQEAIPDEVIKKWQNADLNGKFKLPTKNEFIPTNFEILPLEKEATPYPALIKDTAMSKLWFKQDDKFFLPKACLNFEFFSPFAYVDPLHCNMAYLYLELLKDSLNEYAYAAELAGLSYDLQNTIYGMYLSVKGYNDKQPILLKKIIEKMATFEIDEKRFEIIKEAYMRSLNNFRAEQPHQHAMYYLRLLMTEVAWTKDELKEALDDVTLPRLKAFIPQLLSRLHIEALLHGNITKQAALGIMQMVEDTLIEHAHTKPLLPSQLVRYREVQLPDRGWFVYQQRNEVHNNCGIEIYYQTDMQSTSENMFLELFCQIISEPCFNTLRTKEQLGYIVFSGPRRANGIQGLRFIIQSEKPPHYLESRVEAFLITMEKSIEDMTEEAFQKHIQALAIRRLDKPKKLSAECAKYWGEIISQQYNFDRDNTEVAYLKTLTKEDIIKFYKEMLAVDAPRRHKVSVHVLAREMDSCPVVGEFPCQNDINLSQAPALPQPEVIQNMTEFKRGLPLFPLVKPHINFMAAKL

HEK293 [3] = assay: optical interference in Abeta FP readout, dose response, artefact control for IDE activator project, biochemical, fluorescence polarization (AID 588442); assay type: functional, cell-based; conditions: Homo sapiens
Insulin-degrading enzyme [4] = target: T1, Insulin-degrading enzyme; assay: recombinant IDE activation, cell-free – biochemical, fluorescence polarization, counter-screen for IDE activator project, dose response (AID 588681)
[5] = target: T2, Sentrin-specific protease 6 (Homo sapiens, UniProt Q9GZR1); assay: inhibition of human SENP6 catalytic domain – biochemical, luminescence, set 2, SAR follow-up (AID 588598); assay type: functional
T2 sequence (Q9GZR1 whole entry): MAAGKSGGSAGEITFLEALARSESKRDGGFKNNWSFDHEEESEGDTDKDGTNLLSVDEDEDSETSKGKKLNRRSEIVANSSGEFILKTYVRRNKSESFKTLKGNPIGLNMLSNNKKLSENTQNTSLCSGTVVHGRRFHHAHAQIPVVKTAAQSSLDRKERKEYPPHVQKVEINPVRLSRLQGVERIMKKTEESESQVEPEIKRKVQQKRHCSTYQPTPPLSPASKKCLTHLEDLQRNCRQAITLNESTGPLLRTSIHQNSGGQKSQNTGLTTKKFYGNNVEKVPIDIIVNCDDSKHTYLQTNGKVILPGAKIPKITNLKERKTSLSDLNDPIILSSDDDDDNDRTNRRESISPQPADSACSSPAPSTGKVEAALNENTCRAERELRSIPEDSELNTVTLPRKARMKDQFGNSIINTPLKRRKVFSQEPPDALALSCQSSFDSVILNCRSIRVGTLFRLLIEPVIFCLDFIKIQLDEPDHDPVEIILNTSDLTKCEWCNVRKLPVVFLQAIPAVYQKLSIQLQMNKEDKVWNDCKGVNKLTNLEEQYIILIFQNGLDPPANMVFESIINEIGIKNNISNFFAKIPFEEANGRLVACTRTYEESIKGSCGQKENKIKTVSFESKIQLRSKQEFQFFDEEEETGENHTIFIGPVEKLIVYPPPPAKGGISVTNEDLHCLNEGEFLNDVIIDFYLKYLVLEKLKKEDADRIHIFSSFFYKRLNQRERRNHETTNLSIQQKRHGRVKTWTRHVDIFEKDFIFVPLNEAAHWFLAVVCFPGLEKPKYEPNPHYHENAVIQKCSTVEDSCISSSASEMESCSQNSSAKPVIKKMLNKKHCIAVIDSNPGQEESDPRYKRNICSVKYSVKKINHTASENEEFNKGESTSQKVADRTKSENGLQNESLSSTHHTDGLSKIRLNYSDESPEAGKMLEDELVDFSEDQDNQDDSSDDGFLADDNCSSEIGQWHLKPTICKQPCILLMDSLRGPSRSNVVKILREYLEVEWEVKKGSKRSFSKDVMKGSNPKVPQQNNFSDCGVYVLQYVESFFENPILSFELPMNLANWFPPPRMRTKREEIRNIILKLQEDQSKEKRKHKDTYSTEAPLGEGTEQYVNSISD

Caspase-3 [6] = target: T3, Caspase-3 (Homo sapiens, UniProt P42574); assay: inhibition of recombinant caspase-3 activity – biochemical, luminescence, set 2, selectivity assay for SENP protease inhibitor project, SAR follow-up (AID 588599); assay type: functional
T3 sequence (P42574 whole entry): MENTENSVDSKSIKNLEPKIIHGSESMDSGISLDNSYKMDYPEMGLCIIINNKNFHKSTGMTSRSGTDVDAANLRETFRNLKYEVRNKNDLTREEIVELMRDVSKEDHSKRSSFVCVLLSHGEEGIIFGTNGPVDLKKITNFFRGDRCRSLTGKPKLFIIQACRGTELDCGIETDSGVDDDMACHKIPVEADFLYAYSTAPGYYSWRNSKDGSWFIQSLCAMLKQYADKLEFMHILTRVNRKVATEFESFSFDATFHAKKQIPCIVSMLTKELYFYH

[7] = target: T4, Sentrin-specific protease 7 (Homo sapiens, UniProt Q9BQF6); assay: inhibition of human SENP7 cleavage activity – biochemical, luminescence, set 2, SAR follow-up (AID 588600); assay type: functional
T4 sequence (Q9BQF6 whole entry): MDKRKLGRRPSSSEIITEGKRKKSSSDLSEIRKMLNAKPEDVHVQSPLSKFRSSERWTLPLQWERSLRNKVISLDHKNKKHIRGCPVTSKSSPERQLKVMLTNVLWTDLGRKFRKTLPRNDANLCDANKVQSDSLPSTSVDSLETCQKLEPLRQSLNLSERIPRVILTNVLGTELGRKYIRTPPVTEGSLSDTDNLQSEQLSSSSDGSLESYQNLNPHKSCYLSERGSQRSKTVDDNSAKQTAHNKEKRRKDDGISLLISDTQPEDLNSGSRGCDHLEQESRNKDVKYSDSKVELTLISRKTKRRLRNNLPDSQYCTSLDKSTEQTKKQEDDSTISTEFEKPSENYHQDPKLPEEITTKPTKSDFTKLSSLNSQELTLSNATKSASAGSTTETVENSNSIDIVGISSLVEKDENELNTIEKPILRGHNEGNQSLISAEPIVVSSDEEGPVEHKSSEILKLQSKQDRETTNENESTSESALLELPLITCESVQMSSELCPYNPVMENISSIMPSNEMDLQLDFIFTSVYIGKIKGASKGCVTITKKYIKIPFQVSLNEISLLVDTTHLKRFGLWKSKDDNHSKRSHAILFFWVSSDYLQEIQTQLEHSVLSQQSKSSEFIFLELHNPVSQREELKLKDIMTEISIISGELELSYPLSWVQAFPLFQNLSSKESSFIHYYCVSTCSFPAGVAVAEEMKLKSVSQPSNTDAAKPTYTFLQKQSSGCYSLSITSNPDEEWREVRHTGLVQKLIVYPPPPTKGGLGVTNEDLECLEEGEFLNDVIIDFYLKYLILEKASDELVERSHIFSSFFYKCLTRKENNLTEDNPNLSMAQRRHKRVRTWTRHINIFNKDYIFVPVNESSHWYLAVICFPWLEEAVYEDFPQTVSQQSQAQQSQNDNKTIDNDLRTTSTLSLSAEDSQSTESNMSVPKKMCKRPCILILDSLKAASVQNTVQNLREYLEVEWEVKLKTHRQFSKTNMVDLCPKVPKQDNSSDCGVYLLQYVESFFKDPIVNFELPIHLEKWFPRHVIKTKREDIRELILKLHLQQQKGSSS

[8] = target: T5, Sentrin-specific protease 8 (Homo sapiens, UniProt Q96LD8); assay: inhibition of sentrin protease 8 – biochemical, luminescence, set 2, SAR follow-up (AID 588601); assay type: functional
T5 sequence (Q96LD8 whole entry): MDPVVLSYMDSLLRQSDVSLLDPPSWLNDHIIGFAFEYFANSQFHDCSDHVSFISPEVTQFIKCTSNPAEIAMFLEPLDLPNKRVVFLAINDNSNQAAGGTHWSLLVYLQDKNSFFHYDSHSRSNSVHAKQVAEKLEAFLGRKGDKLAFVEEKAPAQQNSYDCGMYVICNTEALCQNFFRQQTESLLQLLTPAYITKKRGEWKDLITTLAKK

[9] = target: T2, Sentrin-specific protease 6; assay: SAR Analysis of small molecule inhibitors of Sentrin-specific protease 6 (SENP6) using a Luminescent assay. [Related pubchem assays (depositor defined):AID2582, AID2599]; assay type: functional
[10] = target: T4, Sentrin-specific protease 7; assay: inhibition of human SENP7 cleavage activity – biochemical, luminescence, SAR follow-up (AID 504497); assay type: functional
[11] = target: T5, Sentrin-specific protease 8; assay: inhibition of human SENP8 cleavage activity – biochemical, luminescence, SAR follow-up (AID 504501); assay type: functional
Caspase-3 [12] = target: T3, Caspase-3; assay: SAR Analysis of small molecule inhibitors of Sentrin-specific proteases (SENPs) using a Caspase-3 Selectivity assay. [Related pubchem assays (depositor defined):AID2540, AID2599, AID434973, AID489001]; assay type: functional
Genome polyprotein = Genome polyprotein (dengue virus type 2, UniProt P29990); assay: flavivirus cap methylation enzyme inhibition – biochemical, confirmation dose response, primary screen (AID 588689); assay type: functional
SUMO-activating enzyme [13] = target: T6, SUMO-activating enzyme (Homo sapiens, UniProt Q9UBT2); assay: blockers of SAE1/SAE2–UBC9 SUMO transfer – biochemical, HTRF, uHTS, primary screen (AID 2006); assay type: protein-complex assay
SUMO-activating enzyme [14] = target: T6, SUMO-activating enzyme; assay: blockers of UBC9-mediated SUMO conjugation – biochemical, AlphaScreen, SUMOylation inhibitor project, confirmation (AID 2018); assay type: functional
[15] = target: Eukaryotic translation initiation factor 4E (Mus musculus, UniProt P63073); assay: blockers of eIF4G binding by eIF4E – biochemical, TR-FRET, dose response (AID 855); assay type: functional;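 note: potency for disrupting eIF4E binding to eIF4GI seen as loss of FRET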
INS1 = assay: INS-1E survival protection against cytokine death – cell-based, luminescence, retest, dose response (AID 449756); assay type: functional; conditions: Rattus norvegicus;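 note: cell death triggered by IL-1 beta plus TNF-alpha plus IFN-gamma mixture; protective hits raise ATP signal compared with cytokine alone wells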
Albumin = Albumin (Bos taurus, UniProt P02769); assay: Counterscreen for inhibitors of T-cell receptor (TCR)-CD3 interaction: Fluorescence-based biochemical high throughput dose response assay to identify inhibitors of T-cell receptor (TCR)-CD3 interaction using a TAMRA-labeled BSA probe.; assay type: functional
Vero = assay: viability of Vero cells under compound – cytotoxicity control for flavivirus capping enzyme inhibitors (AID 588742); assay type: functional; conditions: Chlorocebus sabaeus
[16] = bead-based luminescence quenchers, dual-tagged ARNT – biochemical, AlphaScreen, cherry-pick, artefact control for ARNT-TACC3 interaction inhibitor project, dose response (AID 651705); assay type: functional;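 note: AlphaScreen bead proximity signal that flags compounds interfering with the detection technology; potency reflects signal decrease which marks the compound as an assay artifact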

T6 sequence (Q9UBE0 whole entry): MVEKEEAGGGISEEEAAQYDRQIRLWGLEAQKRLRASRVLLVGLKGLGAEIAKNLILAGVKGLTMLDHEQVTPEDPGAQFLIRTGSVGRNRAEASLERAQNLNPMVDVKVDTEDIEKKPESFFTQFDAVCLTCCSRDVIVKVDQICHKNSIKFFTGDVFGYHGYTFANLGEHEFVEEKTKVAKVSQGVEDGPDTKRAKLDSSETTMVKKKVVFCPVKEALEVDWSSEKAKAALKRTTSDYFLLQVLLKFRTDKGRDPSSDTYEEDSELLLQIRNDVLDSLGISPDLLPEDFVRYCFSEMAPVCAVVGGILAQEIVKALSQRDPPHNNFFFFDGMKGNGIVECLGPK
T6 sequence (Q9UBT2 whole entry): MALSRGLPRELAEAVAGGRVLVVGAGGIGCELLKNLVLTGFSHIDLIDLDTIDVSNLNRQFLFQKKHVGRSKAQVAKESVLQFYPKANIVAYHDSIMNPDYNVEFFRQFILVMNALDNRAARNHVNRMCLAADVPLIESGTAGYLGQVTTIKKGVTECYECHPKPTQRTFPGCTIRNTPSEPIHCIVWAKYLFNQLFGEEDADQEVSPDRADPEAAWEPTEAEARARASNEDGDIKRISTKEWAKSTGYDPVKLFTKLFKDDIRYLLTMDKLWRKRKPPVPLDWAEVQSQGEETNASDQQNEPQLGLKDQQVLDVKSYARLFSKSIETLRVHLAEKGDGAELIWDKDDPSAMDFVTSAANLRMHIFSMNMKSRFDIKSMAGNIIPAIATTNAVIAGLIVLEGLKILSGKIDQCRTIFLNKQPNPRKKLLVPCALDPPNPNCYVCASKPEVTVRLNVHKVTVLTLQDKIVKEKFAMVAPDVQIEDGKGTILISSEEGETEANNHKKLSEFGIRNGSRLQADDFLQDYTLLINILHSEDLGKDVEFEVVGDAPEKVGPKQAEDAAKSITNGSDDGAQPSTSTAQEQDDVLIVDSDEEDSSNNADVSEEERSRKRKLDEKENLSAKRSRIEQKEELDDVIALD
Sequence of Eukaryotic translation initiation factor 4E (P63073 whole entry): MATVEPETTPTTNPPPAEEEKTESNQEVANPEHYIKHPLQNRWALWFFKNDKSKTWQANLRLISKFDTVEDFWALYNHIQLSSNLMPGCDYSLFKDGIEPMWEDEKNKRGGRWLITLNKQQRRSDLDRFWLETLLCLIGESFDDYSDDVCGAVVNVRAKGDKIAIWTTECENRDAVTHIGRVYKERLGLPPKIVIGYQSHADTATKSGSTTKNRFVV
Sequence of Albumin (P02769 whole entry): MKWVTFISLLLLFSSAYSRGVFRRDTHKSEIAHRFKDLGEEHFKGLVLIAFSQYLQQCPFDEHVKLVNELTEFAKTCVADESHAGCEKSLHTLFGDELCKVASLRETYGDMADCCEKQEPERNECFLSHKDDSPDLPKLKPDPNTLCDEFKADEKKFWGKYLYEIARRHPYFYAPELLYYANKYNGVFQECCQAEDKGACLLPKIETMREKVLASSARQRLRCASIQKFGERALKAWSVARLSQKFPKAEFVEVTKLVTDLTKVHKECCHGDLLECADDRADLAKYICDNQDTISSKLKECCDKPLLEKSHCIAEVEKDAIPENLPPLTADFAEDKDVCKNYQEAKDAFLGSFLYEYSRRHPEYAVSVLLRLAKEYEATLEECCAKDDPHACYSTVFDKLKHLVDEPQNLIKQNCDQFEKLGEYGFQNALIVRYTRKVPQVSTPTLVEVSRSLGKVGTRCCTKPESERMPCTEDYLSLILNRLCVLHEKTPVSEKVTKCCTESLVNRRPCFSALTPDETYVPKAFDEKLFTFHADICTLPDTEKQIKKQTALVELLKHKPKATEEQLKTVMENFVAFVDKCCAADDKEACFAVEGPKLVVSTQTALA
Sequence of Genome polyprotein (P29990 2492-3391 limits assumed): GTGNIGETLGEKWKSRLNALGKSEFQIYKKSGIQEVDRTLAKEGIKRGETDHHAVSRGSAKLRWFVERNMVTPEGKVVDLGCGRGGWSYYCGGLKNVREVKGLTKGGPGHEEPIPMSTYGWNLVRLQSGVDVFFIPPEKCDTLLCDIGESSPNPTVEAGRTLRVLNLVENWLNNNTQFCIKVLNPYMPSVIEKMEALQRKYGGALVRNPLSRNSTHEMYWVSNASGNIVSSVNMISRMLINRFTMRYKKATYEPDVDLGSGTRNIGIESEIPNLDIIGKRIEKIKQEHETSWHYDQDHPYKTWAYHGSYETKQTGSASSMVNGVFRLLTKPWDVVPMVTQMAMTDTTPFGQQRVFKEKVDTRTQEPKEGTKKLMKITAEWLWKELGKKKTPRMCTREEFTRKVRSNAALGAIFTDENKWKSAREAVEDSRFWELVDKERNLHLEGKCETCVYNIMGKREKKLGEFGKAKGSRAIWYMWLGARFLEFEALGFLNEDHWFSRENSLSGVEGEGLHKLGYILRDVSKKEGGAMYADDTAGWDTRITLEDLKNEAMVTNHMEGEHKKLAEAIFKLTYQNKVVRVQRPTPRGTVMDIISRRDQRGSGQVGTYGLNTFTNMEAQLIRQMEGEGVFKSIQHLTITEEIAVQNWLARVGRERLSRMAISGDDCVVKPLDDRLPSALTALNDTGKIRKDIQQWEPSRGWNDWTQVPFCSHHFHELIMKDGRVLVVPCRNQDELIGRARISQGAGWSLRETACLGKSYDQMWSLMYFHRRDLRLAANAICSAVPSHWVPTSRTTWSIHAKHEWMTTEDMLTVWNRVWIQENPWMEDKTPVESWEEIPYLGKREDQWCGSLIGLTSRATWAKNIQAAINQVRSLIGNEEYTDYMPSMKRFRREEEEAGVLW

SMILES | IC50 [5] | IC50 (Caspase-3 [6]) | IC50 [7] | IC50 [8] | IC50 [9] | IC50 [10] | IC50 [11] | IC50 (Caspase-3 [12]) | also measured
O=C(CN1CCN(CN2C(=O)NC3(CCCCCC3)C2=O)CC1)Nc1ccc(F)cc1 | – | – | – | – | – | – | – | – | IC50 (HEK293 [1]): > 89.2 µM (inactive); EC50 (Insulin-degrading enzyme [2]): > 54.7 µM (inactive); EC50 (HEK293 [3]): > 55.9 µM (inactive); EC50 (Insulin-degrading enzyme [4]): > 54.7 µM (inactive)
Cc1sc2ncnc(N3CCC(C(=O)Nc4nc5c(F)cc(F)cc5s4)CC3)c2c1C | > 99 µM (inactive) | > 99 µM (inactive) | > 99 µM (inactive) | > 99 µM (inactive) | – | – | – | – | –
N#Cc1c(NC(=O)c2cc3ncc(Br)cn3n2)sc2c1CCCC2 | – | – | – | – | > 99 µM (inactive) | > 99 µM (inactive) | > 99 µM (inactive) | > 99 µM (inactive) | –
CCS(=O)(=O)c1cccc(C(=O)Nc2nc3ccc(Br)cc3s2)c1 | – | – | – | – | > 99 µM (inactive) | > 99 µM (inactive) | > 99 µM (inactive) | > 99 µM (inactive) | –
Cc1ccccc1C(=O)Nc1cccc(C(=O)N/N=C/c2cc(Cl)cc([N+](=O)[O-])c2O)c1 | – | – | – | – | – | – | – | – | IC50 (Genome polyprotein): > 100 µM (active); IC50 (SUMO-activating enzyme [13]): > 100 µM (inactive); IC50 (SUMO-activating enzyme [14]): 6.22 µM (active); IC50 [15]: 50 µM (inactive); AC50 (INS1): 7.14 µM (active); IC50 (Albumin): > 94.1 µM (inactive); CC50 (Vero): 33 µM (active); AC50 [16]: 95.3 µM (active)
Cc1[nH]c2ccccc2c1C(=O)C(=O)NCc1cccnc1 | > 99 µM (inactive) | > 99 µM (inactive) | > 99 µM (inactive) | > 99 µM (inactive) | – | – | – | – | –
